# Test system: Ceritinib resistant MGH049 cells
# Test: Cell colony formation assay with ceritinib resistant MGH049 cells;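 note: tested compounds are SHP2 inhibitors given alone, colonies fixed and crystal violet stained, DMSO reference taken as the mean of six readings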
# Format: cell-based, human
# Settings: Homo sapiens, 168 h; compound of Table 1 (3 μM) alone, 7 days; normalized to DMSO without compound = 100; read-out: Normalized Crystal Violet abs. (590 nm) DMSO
row,SMILES,activity at 3 µM [%]
1,"CC1(N)CCN(c2cnc(Sc3cccc(NC(=O)c4c(O)nc5ccccn5c4=O)c3Cl)c(N)n2)CC1 [Compound No. 44, N-(3-((3-amino-5-(4-amino-4-methylpiperidin-1-yl)pyrazin-2-yl)thio)-2-chlorophenyl)-2-hydroxy-4-oxo-4H-pyrido[1,2-a]pyrimidine-3-carboxamide]",37
2,"NCC1(c2ccccc2)CCN(c2cnc(-c3cccc(Cl)c3Cl)c(N)n2)CC1 [compound 2, 6-(4-(aminomethyl)-4-phenylpiperidin-1-yl)-3-(2,3-dichlorophenyl)pyrazin-2-amine]",67
3,"Nc1nc(N2CCC3(CCC[C@H]3N)CC2)cnc1Sc1ccnc(N)c1Cl [compound 6, (R)-8-(6-amino-5-((2-amino-3-chloropyridin-4-yl)thio)pyrazin-2-yl)-8-azaspiro[4.5]decan-1-amine]",44.5
4,"Nc1nc(N2CCC3(CC2)COC[C@H]3N)cnc1Sc1ccnc(N)c1Cl [compound 11, (S)-8-(6-amino-5-((2-amino-3-chloropyridin-4-yl)thio)pyrazin-2-yl)-2-oxa-8-azaspiro[4.5]decan-4-amine]",58.9
5,"C[C@H]1C[C@@H](N)C2(CCN(c3cnc(Sc4ccnc(N)c4Cl)c(N)n3)CC2)C1 [compound 12, (1R,3R)-8-(6-amino-5-((2-amino-3-chloropyridin-4-yl)thio)pyrazin-2-yl)-3-methyl-8-azaspiro[4.5]decan-1-amine]",30.1
6,"Nc1nc(N2CCC3(CC2)C[C@H](O)C[C@H]3N)cnc1Sc1ccnc(Cl)c1Cl [compound 13, (2S,4R)-4-amino-8-(6-amino-5-((2,3-dichloropyridin-4-yl)thio)pyrazin-2-yl)-8-azaspiro[4.5]decan-2-ol]",42.8
7,"Nc1nc(N2CCC3(CC2)C[C@@H](O)C[C@H]3N)cnc1Sc1ccnc(Cl)c1Cl [compound 14, (2R,4R)-4-amino-8-(6-amino-5-((2,3-dichloropyridin-4-yl)thio)pyrazin-2-yl)-8-azaspiro[4.5]decan-2-ol]",51.2
8,"C[C@@H]1OCC2(CCN(c3cnc(Sc4ccnc(N)c4Cl)c(N)n3)CC2)[C@@H]1N [compound 16, (3S,4S)-8-(6-amino-5-((2-amino-3-chloropyridin-4-yl)thio)pyrazin-2-yl)-3-methyl-2-oxa-8-azaspiro[4.5]decan-4-amine]",34.4
9,"C[C@@H]1OCC2(CCN(c3nc(N)c(Sc4cccnc4C(F)(F)F)c(=O)n3C)CC2)[C@@H]1N [compound 25, 6-amino-2-((3S,4S)-4-amino-3-methyl-2-oxa-8-azaspiro[4.5]decan-8-yl)-3-methyl-5-((2-(trifluoromethyl)pyridin-3-yl)thio)pyrimidin-4(3H)-one]",52.5
10,"C[C@@H]1OCC2(CCN(c3nc(N)c(Sc4cccc(Cl)c4Cl)c(=O)n3C)CC2)[C@@H]1N [compound 27, 6-amino-2-((3S,4S)-4-amino-3-methyl-2-oxa-8-azaspiro[4.5]decan-8-yl)-5-((2,3-dichlorophenyl)thio)-3-methylpyrimidin-4(3H)-one]",37.8
11,"C[C@H]1C[C@@H](N)C2(CCN(c3nc(N)c(Sc4ccncc4C(F)(F)F)c(=O)n3C)CC2)C1 [compound 28, 6-amino-2-((1R,3R)-1-amino-3-methyl-8-azaspiro[4.5]decan-8-yl)-3-methyl-5-((3-(trifluoromethyl)pyridin-4-yl)thio)pyrimidin-4(3H)-one]",28.1
12,"C[C@H]1C[C@@H](N)C2(CCN(c3nc(N)c(-c4cccc(Cl)c4Cl)c(=O)n3C)CC2)C1 [compound 29, 6-amino-2-((1R,3R)-1-amino-3-methyl-8-azaspiro[4.5]decan-8-yl)-5-(2,3-dichlorophenyl)-3-methylpyrimidin-4(3H)-one]",25.1
13,"COc1cccc(Sc2c(N)nc(N3CCC4(CC3)CO[C@@H](C)[C@H]4N)n(C)c2=O)c1Cl [compound 30, 6-amino-2-((3S,4S)-4-amino-3-methyl-2-oxa-8-azaspiro[4.5]decan-8-yl)-5-((2-chloro-3-methoxyphenyl)thio)-3-methylpyrimidin-4(3H)-one]",39.4
14,"CC[C@@H]1OCC2(CCN(c3nc(N)c(Sc4cccnc4C(F)(F)F)c(=O)n3C)CC2)[C@@H]1N [compound 31, 6-amino-2-((3S,4S)-4-amino-3-ethyl-2-oxa-8-azaspiro[4.5]decan-8-yl)-3-methyl-5-((2-(trifluoromethyl)pyridin-3-yl)thio)pyrimidin-4(3H)-one]",36.4
15,"C[C@@H]1OCC2(CCN(c3nc(N)c(Sc4cccc(N)c4C(F)(F)F)c(=O)n3C)CC2)[C@@H]1N [compound 32, 6-amino-5-((3-amino-2-(trifluoromethyl)phenyl)thio)-2-((3S,4S)-4-amino-3-methyl-2-oxa-8-azaspiro[4.5]decan-8-yl)-3-methylpyrimidin-4(3H)-one]",58.2
16,"Cn1c(N2CCC3(CC2)CC(F)(F)C[C@H]3N)nc(N)c(Sc2ccnc(N)c2Cl)c1=O [compound 33, (R)-6-amino-2-(1-amino-3,3-difluoro-8-azaspiro[4.5]decan-8-yl)-5-((2-amino-3-chloropyridin-4-yl)thio)-3-methylpyrimidin-4(3H)-one]",73.3
17,"C[C@@H]1OCC2(CCN(c3nc(N)c(Sc4ccncc4C(F)(F)F)c(=O)n3C)CC2)[C@@H]1N [compound 34, 6-amino-2-((3S,4S)-4-amino-3-methyl-2-oxa-8-azaspiro[4.5]decan-8-yl)-3-methyl-5-((3-(trifluoromethyl)pyridin-4-yl)thio)pyrimidin-4(3H)-one]",43.6
18,"C[C@H]1C[C@@H](N)C2(CCN(c3nc(N)c(-c4ccc(Cl)cc4)c(=O)n3C)CC2)C1 [compound 35, 6-amino-2-((1R,3R)-1-amino-3-methyl-8-azaspiro[4.5]decan-8-yl)-5-(4-chlorophenyl)-3-methylpyrimidin-4(3H)-one]",32.2
19,"C[C@H]1C[C@@H](N)C2(CCN(c3nc(N)c(-c4ccccc4)c(=O)n3C)CC2)C1 [compound 36, 6-amino-2-((1R,3R)-1-amino-3-methyl-8-azaspiro[4.5]decan-8-yl)-3-methyl-5-phenylpyrimidin-4(3H)-one]",23.8
20,"CC1(CN)CCN(c2nc3[nH]cc(-c4cccc(Cl)c4Cl)c3c(=O)[nH]2)CC1 [compound 38, 2-(4-(aminomethyl)-4-methylpiperidin-1-yl)-5-(2,3-dichlorophenyl)-3,7-dihydro-4H-pyrrolo[2,3-d]pyrimidin-4-one]",83.9
21,"C[C@@H]1OCC2(CCN(c3cnc4c(-c5ccnc(Cl)c5Cl)n[nH]c4n3)CC2)[C@@H]1N [compound 39, (3S,4S)-8-(3-(2,3-dichloropyridin-4-yl)-1H-pyrazolo[3,4-b]pyrazin-6-yl)-3-methyl-2-oxa-8-azaspiro[4.5]decan-4-amine]",97.9
22,"Cc1nc(N)ccc1-c1[nH]nc2nc(N3CCC4(CC3)C[C@@H](C)C[C@H]4N)n(C)c(=O)c12 [compound 40, 3-(6-amino-2-methylpyridin-3-yl)-6-((1R,3R)-1-amino-3-methyl-8-azaspiro[4.5]decan-8-yl)-5-methyl-2,5-dihydro-4H-pyrazolo[3,4-d]pyrimidin-4-one]",22.4
23,"Cc1nc(N)ccc1-c1[nH]nc2nc(N3CCC4(CC3)CC(F)(F)C[C@H]4N)n(C)c(=O)c12 [compound 41, (R)-3-(6-amino-2-methylpyridin-3-yl)-6-(1-amino-3,3-difluoro-8-azaspiro[4.5]decan-8-yl)-5-methyl-2,5-dihydro-4H-pyrazolo[3,4-d]pyrimidin-4-one]",25.3
24,"COc1nccc(-c2c[nH]c3nc(N4CCC5(CC4)CO[C@@H](C)[C@H]5N)n(C)c(=O)c23)c1Cl [compound 43, 2-((3S,4S)-4-amino-3-methyl-2-oxa-8-azaspiro[4.5]decan-8-yl)-5-(3-chloro-2-methoxypyridin-4-yl)-3-methyl-3,7-dihydro-4H-pyrrolo[2,3-d]pyrimidin-4-one]",95.6
25,"C[C@@H]1OCC2(CCN(c3cnc(Sc4cccc(NC(=O)c5c(O)nc6n(c5=O)CCCC6)c4Cl)c(N)n3)CC2)[C@@H]1N [compound 45, N-(3-((3-amino-5-((3S,4S)-4-amino-3-methyl-2-oxa-8-azaspiro[4.5]decan-8-yl)pyrazin-2-yl)thio)-2-chlorophenyl)-2-hydroxy-4-oxo-6,7,8,9-tetrahydro-4H-pyrido[1,2-a]pyrimidine-3-carboxamide]",12.1
26,"Nc1nc(N2CCC3(CCC[C@H]3N)CC2)cnc1Sc1cccc(NC(=O)c2c(O)nc3n(c2=O)CCCC3)c1Cl [compound 47, (R)-N-(3-((3-amino-5-(1-amino-8-azaspiro[4.5]decan-8-yl)pyrazin-2-yl)thio)-2-chlorophenyl)-2-hydroxy-4-oxo-6,7,8,9-tetrahydro-4H-pyrido[1,2-a]pyrimidine-3-carboxamide]",14.8
27,"CC1(CN)CCN(c2cnc(Sc3cccc(NC(=O)c4c(O)nc5n(c4=O)CCCC5)c3Cl)c(N)n2)CC1 [compound 48, N-(3-((3-amino-5-(4-(aminomethyl)-4-methylpiperidin-1-yl)pyrazin-2-yl)thio)-2-chlorophenyl)-2-hydroxy-4-oxo-6,7,8,9-tetrahydro-4H-pyrido[1,2-a]pyrimidine-3-carboxamide]",52.3
28,"Nc1nc(N2CCC3(CC2)CC(F)(F)C[C@H]3N)cnc1Sc1cccc(NC(=O)c2c(O)nc3n(c2=O)CCCC3)c1Cl [compound 49, (R)-N-(3-((3-amino-5-(1-amino-3,3-difluoro-8-azaspiro[4.5]decan-8-yl)pyrazin-2-yl)thio)-2-chlorophenyl)-2-hydroxy-4-oxo-6,7,8,9-tetrahydro-4H-pyrido[1,2-a]pyrimidine-3-carboxamide]",26.5
29,"CC1(CN)CCN(c2cnc(Sc3cccc(NC(=O)c4c(O)nc5ccccn5c4=O)c3Cl)c(N)n2)CC1 [compound 50, N-(3-((3-amino-5-(4-(aminomethyl)-4-methylpiperidin-1-yl)pyrazin-2-yl)thio)-2-chlorophenyl)-2-hydroxy-4-oxo-4H-pyrido[1,2-a]pyrimidine-3-carboxamide]",98.9
